Measurements: patent US20160324153A1, “HERBICIDAL MIXTURE COMPRISING IMAZETHAPYR AND CYCLOXYDIM” (BASF AGROCHEMICAL PRODUCTS, priority 2014, published 2016)

Columns and labels:
Format in all cases: in vivo
[1] = test system: ECHCO (Echinochloa colonum); experiment: Post emergence treatment, herbicidal activity against ECHCO
From the text: (§1) Synergism can be described as an interaction where the combined effect of two or more compounds is greater than the sum of the individual effects of each of the compounds. The presence of a synergistic effect in terms of percent control, between two mixing partners (X and Y) can be calculated using the Colby equation (Colby, S. R., 1967, Calculating Synergistic and Antagonistic Responses in Herbicide Combinations, Weeds, 15, 21-22): When the observed combined control effect is greater than the expected (calculated) combined control effect (E), then the combined effect is synergistic. […] However, the weed control afforded by the compounds, mixtures or compositions is not limited to these species. The analysis of synergism or antagonism between the mixtures or compositions was determined using Colby's equation. Analogously, the Colby's equation can be used to determine synergism of 3-way and higher mixtures. Post Emergence Treatment by the Mixture of Imazethapyr+Cycloxydim Post Emergence Treatment by the Mixture of (Imazethapyr+Imazamox)+Cycloxydim

[2] = test system: LEFFA (Leptochloa fusca); experiment: Post emergence treatment, herbicidal activity against LEFFA; settings: Example 1, post emergence
From the text: as §1, with “Imazethapyr+Cycloxydim” for “Imazethapyr+Cycloxydim Post Emergence Treatment by the Mixture of (Imazethapyr+Imazamox)+Cycloxydim”

[3] = test system: ORYSA (Orysa sativa); experiment: Post emergence treatment, herbicidal activity against ORYSA
From the text: as §1

[4] = test system: BRAPL (Brachiaria plantaginea); experiment: Post emergence treatment, herbicidal activity against BRAPL; settings: Example 2, post emergence; Cycloxydim 3 g ai/ha
From the text: as §1, with “of” for “of Imazethapyr+Cycloxydim Post Emergence Treatment by the Mixture of”

[5] = test system: PHACA (Phalaris canariensis); experiment: Post emergence treatment, herbicidal activity against PHACA; settings: Example 2, post emergence
From the text: as §1, with “of” for “of Imazethapyr+Cycloxydim Post Emergence Treatment by the Mixture of”

[6] = Example 1, post emergence, Imazethapyr 7.5 g ai/ha
[7] = Example 1, post emergence, Cycloxydim 6 g ai/ha

Row | Structure (SMILES) | Herbicidal activity against ECHCO, Found [1, 6] | Herbicidal activity against LEFFA, Found ([2]; Imazethapyr 7.5 g ai/ha) | Herbicidal activity against ORYSA, Found [3, 6] | Herbicidal activity against ECHCO, Found [1, 7] | Herbicidal activity against ECHCO, Found ([1]; Example 2, post emergence, Cycloxydim 3 g ai/ha) | Herbicidal activity against LEFFA, Found ([2]; Cycloxydim 6 g ai/ha) | Herbicidal activity against BRAPL, Found [4] | Herbicidal activity against PHACA, Found ([5]; the 3rd table, Cycloxydim 3 g ai/ha) | Herbicidal activity against PHACA, Found ([5]; the 5th table, Cycloxydim 3 g ai/ha) | Herbicidal activity against PHACA, Found ([5]; Cycloxydim 6 g ai/ha) | Herbicidal activity against ORYSA, Found [3, 7] | Herbicidal activity against ORYSA, Found ([3]; Example 2, post emergence, Cycloxydim 6 g ai/ha)
1 | CCc1cnc(C2=NC(C)(C(C)C)C(=O)N2)c(C(=O)O)c1 (racemic) [Imazethapyr, 5-ethyl-2-[(RS)-4-isopropyl-4-methyl-5-oxo-2-imidazolin-2-yl]nicotinic acid] | 85 | 55 | 50 | – | – | – | – | – | – | – | – | –
2 | CCCC(=NOCC)C1=C(O)CC(C2CCCSC2)CC1=O (racemic) [Cycloxydim, (5RS)-2-[(EZ)-1-(Ethoxyimino)butyl]-3-hydroxy-5-[(3RS)-thian-3-yl]cyclohex-2-en-1-one] | – | – | – | 50 | 0 | 40 | 0 | 0 | 0 | 60 | 20 | 20
